Experimental findings from patent publication US20080119456A1, “Substituted Thiazoleacetic Acid as Crth2 Ligands” (priority 2004, published 2008) are described below.

Assay [1] concerns the target T1, human CRTH2-Rluc (Homo sapiens, UniProt Q9Y5Y4, V204A).
T1 construct: expressed in transfected cells
T1 sequence (Q9Y5Y4 1-395 V204A): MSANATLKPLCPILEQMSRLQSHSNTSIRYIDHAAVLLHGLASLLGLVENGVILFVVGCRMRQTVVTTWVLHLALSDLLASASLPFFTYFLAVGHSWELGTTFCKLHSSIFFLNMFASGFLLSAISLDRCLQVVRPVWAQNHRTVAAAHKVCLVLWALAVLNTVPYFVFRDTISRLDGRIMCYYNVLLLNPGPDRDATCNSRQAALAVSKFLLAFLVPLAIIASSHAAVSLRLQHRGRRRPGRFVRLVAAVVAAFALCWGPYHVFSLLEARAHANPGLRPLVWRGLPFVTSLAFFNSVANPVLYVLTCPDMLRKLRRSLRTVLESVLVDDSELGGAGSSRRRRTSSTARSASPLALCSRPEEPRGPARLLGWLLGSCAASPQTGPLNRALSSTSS
Description: Functional antagonist BRET assay on HEK293 cells stably expressing CRTH2-Rluc and GFP2-β-arr2. The conditions noted are these: antagonist incubated 15 minutes before agonist, read-out: Antag. IC50. The format is cell-based. The source says: (§1) Generation/origin of the cDNA Constructs. The coding sequence of the human CRTH2 receptor (genbank accession no NM_004778) was amplified by PCR from a human hippocampus cDNA library and inserted into the pcDNA3.1(+) expression vector (invitrogen) via 5′ HindIII and 3′ EcoRI. To generate a CRTH2-Renilla luciferase (CRTH2-Rluc) fusion protein, the CRTH2 coding sequence without a STOP codon and Rluc were amplified, fused in frame by PCR and subcloned into the pcDNA3.1(+)Zeo expression vector (invitrogen). Human β-arrestin2 (β-arr2) N-terminally tagged with GFP^2 (βarr2-GFP^2) and Renilla luciferase were purchased from BioSignal Packard Inc, (Montreal, Canada). The sequence identity of the construct was verified by restriction endonuclease digests and sequencing in both directions on an ABI Prism (Applied Biosystems, Foster City, Calif.).
(§2) Cell Culture and Transfection. COS-7 cells were grown in Dulbecco's modified Eagle's medium (DMEM) 1885 supplemented with 10% fetal bovine serum, 100 units/ml penicillin, […] streptomycin, and kept at 37° C. in a 10% CO2 atmosphere. HEK293 cells were maintained in Minimum Essential medium (MEM) supplemented with 10% (v/v) heat inactivated fetal calf serum (HIFCS), 2 mM Glutamax™-I, 1% non essential amino acids (NEAA), 1% sodium pyruvate and 10 μg/ml gentamicin. For binding experiments, COS7 cells were transiently transfected with the CRTH2 receptor using a calcium phosphate-DNA coprecipitation method with the addition of chloroquine (as described by Hoist et al., 2001*). To perform the functional Bioluminescence Resonance Energy Transfer (BRET) assays, a HEK293 cell clone stably expressing βarr2-GFP^2 and CRTH2-Rluc was generated (CRTH2-HEK293 cells).
BRET assay. Functional BRET assays were performed on HEK293 cells stably expressing human CRTH2-Rluc and GFP^2-β-arr2. Prior to their use in the BRET assay cells were detached and re-suspended in D-PBS with 1000 mg/L L-Glucose at a density of 2×10^6 cells/mL. DeepBlueC™ was diluted to 50 μM in D-PBS with 1000 mg/L L-Glucose (light sensitive). 100 μL of cell suspension was transferred to wells in a 96-well microplate (white OptiPlate) and placed in the Mithras LB 940 instrument (BERTHOLD TECHNOLOGIES, Bad Wildbad, Germany). 12 μL/well agonist was then injected by injector 1 and 10 μL/well DeepBlueC™ was injected simultaneously by injector 2. Five seconds after the injections the light output from the well was measured sequentially at 400 nm and 515 nm, and the BRET signal (mBRET ratio) was calculated by the ratio of the fluorescence emitted by GFP^2-β-arr2 (515 nm) over the light emitted by the receptor-Rluc (400 nm). Antagonists were added before placing the microplates into the Mithras LB 940 and allowed to incubate for 15 minutes prior to the addition of agonist and DeepBlueC™. Compounds were dissolved in DMSO and the final DMSO concentration was kept constant at 1% in the assay.
(§3) Curve analysis was performed with the GraphPadPrism software 3.0 (Graphpad Prism Inc., San Diego, USA) and IC50 values were calculated as a measure of the antagonistic potencies.
A general note: In BRET a luciferase serves as donor, and the signal depends on an acceptor being close.

Assay [2] addresses T2, human CRTH2 receptor (Homo sapiens, UniProt Q9Y5Y4, V204A).
T2 construct: expressed in transfected cells; host or cells: COS-7 cells, transient, pcDNA3.1(+)
T2 sequence (Q9Y5Y4 1-395 V204A): T1 sequence (Q9Y5Y4 1-395 V204A)
Description: Receptor binding assay: [3H]PGD2 competition on whole COS-7 cells transfected with CRTH2. The note with it: 0.1 nM [3H]PGD2, whole cells, 3 h at 4° C.
From the text: as §1, §2
Binding assay. 24 h after transfection COS-7 cells were seeded into 96 well plates at a density of 30.000 cells/well. Competition binding experiments on whole cells were then performed about 18-24 h later using 0.1 nM [^3H]PGD2 (NEN, 172 Ci/mmol) in a binding buffer consisting of HBSS (GIBCO) and 10 mM HEPES. Competing ligands were diluted in DMSO which was kept constant at 1% (v/v) of the final incubation volume. Total and nonspecific binding were determined in the absence and presence of 10 μM PGD2. Binding reactions were routinely conducted for 3 h at 4° C. and terminated by 2 washes (100 μl each) with ice cold binding buffer. Radioactivity was determined by liquid scintillation counting in a TOPCOUNTER (Packard) following over night incubation in Microscint 20. Stable HEK293 cells were seeded at a density of 30.000 cells/well 18-24 h prior to the binding assay which was performed essentially as described for COS7 cells above. Determinations were made in duplicates.
as §3

As a reminder, the IC50 is the concentration needed to halve the response being measured. Take `COc1ccc(C(c2ccccc2)c2nc(-c3ccc(F)cc3)c(CC(=O)O)s2)cc1` (stereo not shown) [Compound A15, {4-(4-Fluoro-phenyl)-2-[(4-methoxy-phenyl)-phenyl-methyl]-thiazol-5-yl}-acetic acid]: the IC50 in assay [1] and in assay [2] was under 500 nM each time.

`COc1ccc(C(c2ccccc2)c2nc(-c3ccc(Cl)cc3)c(CC(=O)O)s2)cc1` (stereo not shown) [Compound A16, {4-(4-Chloro-phenyl)-2-[(4-methoxy-phenyl)-phenyl-methyl]-thiazol-5-yl}-acetic acid]: the IC50 in assay [1] and in assay [2] was under 500 nM in each case.

Consider `O=C(O)Cc1sc(C(c2ccccc2)c2ccccc2)nc1-c1ccccc1` [Compound A11, (2-Benzhydryl-4-phenyl-thiazol-5-yl)-acetic acid], for which the IC50 in assay [1] is under 500 nM; in assay [2] it was 500 to 5000 nM.

In the case of `O=C(O)Cc1sc(C(c2ccccc2)c2ccc(F)c(F)c2)nc1-c1ccc(Cl)cc1` (stereo not shown) [Compound A17, {4-(4-Chloro-phenyl)-2-[(3,4-difluoro-phenyl)-phenyl-methyl]-thiazol-5-yl}-acetic acid], the IC50 is over 5000 nM in assay [1] and under 500 nM in assay [2].

As for `COc1ccc(-c2nc(C(c3ccccc3)c3ccccc3)sc2CC(=O)O)cc1` [Compound A12, [2-Benzhydryl-4-(4-methoxy-phenyl)-thiazol-5-yl]-acetic acid], the values for the IC50 in assay [1] and in assay [2] were 500 to 5000 nM and under 500 nM, respectively.

For the molecule `O=C(O)Cc1sc(C(c2ccccc2)c2ccc(O)cc2)nc1-c1ccc(F)cc1` (stereo not shown) [Compound A22, {4-(4-Fluoro-phenyl)-2-[(4-hydroxy-phenyl)-phenyl-methyl]-thiazol-5-yl}-acetic acid], the IC50 in assay [1] and in assay [2] was under 500 nM each time.

On to `O=C(O)Cc1sc(C(Cc2ccccc2)c2ccccc2)nc1-c1ccc(Cl)cc1` (stereo not shown) [Compound A5, [4-(4-Chloro-phenyl)-2-(1,2-diphenyl-ethyl)-thiazol-5-yl]-acetic acid], for which the IC50 is 500 to 5000 nM in assay [1] and under 500 nM in assay [2].

In the case of `O=C(O)Cc1sc(C(c2ccccc2)c2ccccc2)nc1-c1ccc(Oc2ccccc2)cc1` [Compound A21, [2-Benzhydryl-4-(4-phenoxy-phenyl)-thiazol-5-yl]-acetic acid], the IC50 in assay [1] was 500 to 5000 nM; in assay [2], under 500 nM.

In the case of `O=C(O)Cc1sc(Cc2ccccc2-c2ccc3c(c2)OCO3)nc1-c1ccc(F)cc1` [Compound A42, [2-(2-Benzo[1,3]dioxol-5-yl-benzyl)-4-(4-fluoro-phenyl)-thiazol-5-yl]-acetic acid], the IC50 in assay [1] and in assay [2] was under 500 nM in each case.

Turning to `COc1cccc(-c2ccccc2Cc2nc(-c3ccc(F)cc3)c(CC(=O)O)s2)c1` [Compound A37, [4-(4-Fluoro-phenyl)-2-(3′-methoxy-biphenyl-2-ylmethyl)-thiazol-5-yl]-acetic acid], the IC50 in assay [1] and in assay [2] was under 500 nM throughout.

As for `O=C(O)Cc1sc(C(Cc2ccccc2)c2ccc(Cl)cc2)nc1-c1ccc(Cl)cc1` (stereo not shown) [Compound A9, {4-(4-Chloro-phenyl)-2-[1-(4-chloro-phenyl)-2-phenyl-ethyl]-thiazol-5-yl}-acetic acid], the IC50 in assay [1] is 500 to 5000 nM; in assay [2] it was under 500 nM.

Regarding `O=C(O)Cc1sc(C(c2ccccc2)c2ccc(F)c(F)c2)nc1-c1ccc(F)cc1` (stereo not shown) [Compound A18, [2-[(3,4-Difluoro-phenyl)-phenyl-methyl]-4-(4-fluoro-phenyl)-thiazol-5-yl]-acetic acid], the IC50 in assay [1] and in assay [2] was under 500 nM throughout.

Turning to `O=C(O)Cc1sc(C2(c3ccccc3)CCNCC2)nc1-c1ccc(Cl)cc1` [Compound A46, [4-(4-Chloro-phenyl)-2-(4-phenyl-piperidin-4-yl)-thiazol-5-yl]-acetic acid], the IC50 in assay [1] was over 5000 nM; in assay [2] it was 500 to 5000 nM.

Turning to `O=C(O)Cc1sc(C(c2ccc(F)cc2)c2ccc(F)cc2)nc1-c1ccc(F)cc1` [Compound A14, [2-[Bis-(4-fluoro-phenyl)-methyl]-4-(4-fluoro-phenyl)-thiazol-5-yl]-acetic acid], the IC50 in assay [1] and in assay [2] was under 500 nM each time.

Turning to `COc1ccc(-c2ccccc2Cc2nc(-c3ccc(F)cc3)c(CC(=O)O)s2)cc1` [Compound A40, [4-(4-Fluoro-phenyl)-2-(4′-methoxy-biphenyl-2-ylmethyl)-thiazol-5-yl]-acetic acid], the IC50 in assay [1] and in assay [2] was under 500 nM in each case.

In the case of `O=C(O)Cc1sc(C(c2ccccc2)c2ccccc2)nc1-c1ccc(C(F)(F)F)cc1` [Compound A24, [2-Benzhydryl-4-(4-trifluoromethyl-phenyl)-thiazol-5-yl]-acetic acid], the figures for the half-inhibitory concentration (IC50) in assay [1] and in assay [2] were over 5000 nM and 500 to 5000 nM, respectively.

On to `O=C(O)Cc1sc(C(c2ccccc2)c2ccccn2)nc1-c1ccc(Cl)cc1` (stereo not shown) [Compound A28, [4-(4-Chloro-phenyl)-2-(phenyl-pyridin-2-yl-methyl)-thiazol-5-yl]-acetic acid], for which the figures for the IC50 in assay [1] and in assay [2] were 500 to 5000 nM and under 500 nM, respectively.

Regarding `N#Cc1ccc(-c2ccccc2Cc2nc(-c3ccc(F)cc3)c(CC(=O)O)s2)cc1` [Compound A38, [2-(4′-Cyano-biphenyl-2-ylmethyl)-4-(4-fluoro-phenyl)-thiazol-5-yl]-acetic acid], the IC50 in assay [1] and in assay [2] was under 500 nM throughout.

Turning to `COc1ccc(C(c2ccc(OC)cc2)c2nc(-c3ccc(F)cc3)c(CC(=O)O)s2)cc1` [Compound A20, [2-[Bis-(4-methoxy-phenyl)-methyl]-4-(4-fluoro-phenyl)-thiazol-5-yl]-acetic acid], the IC50 in assay [1] and in assay [2] was under 500 nM throughout.

In the case of `CC(=O)N1CCC(c2ccccc2)(c2nc(-c3ccc(Cl)cc3)c(CC(=O)O)s2)CC1` [Compound A45], the IC50 in assay [1] was 500 to 5000 nM; in assay [2] it was under 500 nM.
